Experimental data taken from patent EP0117176A1, “Zinc salt of L-thiazolidine-4-carboxylic acid, its preparation, compositions containing it and its use” (PIERRE FABRE S.A., priority 1983, dated 1984).

How the values were obtained:
[1] = Solubility; format: physicochemical; conditions: dans les solvants organiques
Description: Solubilité : Soluble dans l'eau à 1 %. Insoluble dans les solvants organiques.

[2] = Antioxidant power: peroxide index during oxidation of linoleic acid (method of CARNAT and POURRAT, linoleic acid instead of linseed oil)
Description: La mesure du pouvoir antioxydant est effectuée selon la méthode décrite par CARNAT et POURRAT (Ann. Pharm. Fr. 1979, 37, n° 3-4, p. 119-124) en remplaçant l'huile de lin par de l'acide linoléique. L'oxydation de l'acide linoléique est suivie chaque jour par une mesure de l'indice de péroxyde Ip.
Dans un flacon contenant l'acide linoléique, on ajoute 15 ml de CHCl3, 20 ml d'acide acétique RP puis 1 ml de solution aqueuse saturée de IK. On agite une minute et on laisse reposer le flacon 5 minutes à l'obscurité.
A près voir ajouté 100 ml d'eau, on dose l'iode libéré par du thiosulfate de sodium 0,01 N.

[3] = system: lipase; assay: Antilipase power: inhibition of hydrolysis of glycerol tributyrate by lipase; format: biochemical; conditions: substrate tributyrate de glycérol
Description: Le milieu d'incubation témoin ne contient que des acides gras estérifiés (tributyrate de glycérol).
L'ajout de lipase dans le milieu entraîne l'hydrolyse du tributyrate de glycérol.
L'incorporation de L-thiazolidine-4 carboxylate de zinc avant l'adjonction de lipase empêche la libération d'acide butyrique. Les résultats obtenus sont regroupés dans le tableau suivant : […]

[4] = Local tolerance on shaved flank; format: in vivo; conditions: 5 cobayes albinos adultes; application three times a week for two weeks on shaved flank
Description: La tolérance a été recherchée sur 5 cobayes albinos adultes.

L-thiazolidine-4 carboxylate de zinc
Solubilité [1]: Insoluble | Indice de péroxydes ([2]; Temps 0 h): 0,91 | Indice de péroxydes ([2]; Temps 24 h): 12,7 | Indice de péroxydes ([2]; Temps 48 h): 25.2 | % d'inhibition mesuré ([3]; 5 mg): 52% | % d'inhibition mesuré ([3]; 10 mg): 71,5% | Tolérance locale [4]: aucune réaction
